Measured values published in patent US10765680B2, “Combination of a MCL-1 inhibitor and a taxane compound, uses and pharmaceutical compositions thereof” (priority 2017, dated 2020).

Experiments:
[1] = test system: MDA-MB-436 breast cancer cell line; experiment: 72 hours CellTiter-Glo proliferation assay, MDA-MB-436; format: cell-based; settings: single agent, read-out: Abs IC50
Procedure: (§1) Compounds were dissolved in 100% DMSO (Sigma, Catalog # D2438-50 ML) at a stock concentration of 10 mM and stored at −20° C. until use. Compounds were arrayed in 2 ml deep 96-well plates (Greiner bio-one, catalog number 780271) serially diluted 3-fold. Compound 1 was used over a concentration range of 0.0-10.0 μM. Paclitaxel was used over a concentration range of 0.0-1.0 μM in breast cancer cells and 0.0-2.0 μM range in lung cancer cells.
(§2) All cell lines were purchased from the American Type Culture Collection and cultured according to vendor recommendations. […] All cell lines were determined to be free of mycoplasma contamination by a PCR detection assay performed at Idexx Radil (Columbia, Mo., USA) and authenticated by SNP analysis. […] Cells were expanded to T-75 flasks and assessed for viability using a Beckman-Coulter ViCell counter prior to plating. […]
(§3) Cell proliferation was measured in 72 hours CellTiter-Glo™ (CTG) assays and all results shown are the result of at least triplicate measurements. […] After 72 hours of compound treatment the effects of compounds on cell proliferation was determined using the CellTiter-Glo™ Luminescent Cell Viability Assay (Promega, Catalog # G7573). This is a homogeneous method to determine the number of viable cells in culture based on quantitation of the ATP present, which signals the presence of metabolically active cells. […]

[2] = test system: MDA-MB-231 breast cancer cell line; experiment: 72 hours CellTiter-Glo proliferation assay, MDA-MB-231; format: cell-based; settings: single agent, read-out: Abs IC50
Procedure: as §1, §2, §3

[3] = test system: HCC1954 breast cancer cell line; experiment: 72 hours CellTiter-Glo proliferation assay, HCC1954; format: cell-based; settings: single agent, read-out: Abs IC50
Procedure: as §1, §2, §3

[4] = test system: NCI-H522 lung cancer cell line; experiment: 72 hours CellTiter-Glo proliferation assay, NCI-H522; format: cell-based; settings: single agent, read-out: Abs IC50
Procedure: as §1, §2, §3

[5] = test system: HCC38 breast cancer cell line; experiment: 72 hours CellTiter-Glo proliferation assay, HCC38; format: cell-based; settings: single agent, read-out: Abs IC50
Procedure: as §1, §2, §3

[6] = test system: BT-20 breast cancer cell line; experiment: 72 hours CellTiter-Glo proliferation assay, BT-20; format: cell-based; settings: single agent, read-out: Abs IC50
Procedure: as §1, §2, §3

[7] = test system: MDA-MB-157 breast cancer cell line; experiment: 72 hours CellTiter-Glo proliferation assay, MDA-MB-157; format: cell-based; settings: single agent, read-out: Abs IC50
Procedure: as §1, §2, §3

[8] = test system: HCC1937 breast cancer cell line; experiment: 72 hours CellTiter-Glo proliferation assay, HCC1937; format: cell-based; settings: single agent, read-out: Abs IC50
Procedure: as §1, §2, §3

TNBC 110T PDX model = experiment: TNBC 110T PDX model, tumor growth and survival (Compound 1, docetaxel); format: in vivo, NOD-SCID-IL2Rγc−/− female mice; settings: Compound 1 15 mg/kg i.v. twice weekly for six weeks
Procedure: A cohort of 40 female NSG mice was seeded with thawed single cell suspensions of early passage human breast tumors (TNBC PDX110). Briefly, 100,000 cells were resuspended in 10 μl of transplantation buffer (50% fetal calf serum, 10% of a 0.04% trypan blue solution and 40% PBS) and growth-factor-reduced Matrigel [BD] at a ratio of 3:1, and injected into the cleared mammary fat pads of 3- or 4-week-old NOD-SCID-IL2Rγc^−/− female mice. […] Once tumors reached a volume of 60-110 mm^3, mice were randomized into treatment arms and treatment commenced. Docetaxel or its vehicle was prepared by dissolving stock solution (20 mg/ml) with PBS and injected i.p. every 21 days for two treatment cycles. The duration of therapy is indicated by the bar. […] Compound 1 (15 mg/kg) or its vehicle was injected i.v. twice weekly for six weeks. Mice were sacrificed at the first measurement where tumor volume exceeded 600 mm^3, or if their health deteriorated for reasons other than disease progression or drug toxicity (censored event). n=9-10 mice per treatment group.

[9] = test system: Hs 578T breast cancer cell line; experiment: 72 hours CellTiter-Glo proliferation assay, Hs 578T; format: cell-based; settings: single agent, read-out: Abs IC50
Procedure: as §1, §2, §3

[10] = test system: HCC1395 breast cancer cell line; experiment: 72 hours CellTiter-Glo proliferation assay, HCC1395; format: cell-based; settings: single agent, read-out: Abs IC50
Procedure: as §1, §2, §3

[11] = test system: Cal-148 breast cancer cell line; experiment: 72 hours CellTiter-Glo proliferation assay, Cal-148; format: cell-based; settings: single agent, read-out: Abs IC50
Procedure: as §1, §2, §3

MDA-MB-231 xenografts = experiment: MDA-MB-231 breast xenograft model, antitumor efficacy; format: in vivo, female nude rats; settings: Compound 1 50 mg/kg QW×7 iv infusion, liposomal formulation

COc1ccccc1-c1nccc(COc2ccccc2C[C@@H](Oc2ncnc3sc(-c4ccc(F)cc4)c(-c4ccc(OCCN5CCN(C)CC5)c(Cl)c4C)c23)C(=O)O)n1 [Compound 1, (2R)-2-{[(5Sa)-5-{3-chloro-2-methyl-4-[2-(4-methylpiperazin-1-yl)ethoxy]phenyl}-6-(4-fluorophenyl)thieno[2,3-d]pyrimidin-4-yl]oxy}-3-(2-{[2-(2-methoxyphenyl)pyrimidin-4-yl]methoxy}phenyl)propanoic acid]
IC50 [1]: > 10000 nM
IC50 [2]: > 10000 nM
IC50 [3]: 158 nM
IC50 [4]: 713 nM
IC50 [5]: 3380 nM
IC50 [6]: 653 nM
IC50 [7]: > 10000 nM
IC50 [8]: 137 nM
inhibition of tumor growth, single agent (TNBC 110T PDX model): insufficient in inhibiting tumor growth
IC50 [9]: 520 nM
IC50 [10]: 9920 nM
IC50 [11]: 1330 nM
efficacy (MDA-MB-231 xenografts): no efficacy
